Laboratory results reported in US20230212222A1 (ANYGEN CO., LTD., priority 2020, published 2023).
Read-outs that look alike come from different tables or passages of the source. Square brackets hold non-standard residues; d marks the D form. Peptide text beside a SMILES is read from it. * marks the point of attachment. Tyr(3,5-(NO2)2) = N[C@@H](Cc1cc([N+](=O)[O-])c(O)c([N+](=O)[O-])c1)C(=O)O; His(Trt) = N[C@@H](Cc1cn(C(c2ccccc2)(c2ccccc2)c2ccccc2)cn1)C(=O)O; His(τ-CHPh2) = N[C@@H](Cc1cn(C(c2ccccc2)c2ccccc2)cn1)C(=O)O; sY = N[C@@H](Cc1ccc(OS(=O)(=O)O)cc1)C(=O)O; dPhe(4-Cl) = N[C@H](Cc1ccc(Cl)cc1)C(=O)O; dPhe(4-Me) = Cc1ccc(C[C@@H](N)C(=O)O)cc1; d2Nal = N[C@H](Cc1ccc2ccccc2c1)C(=O)O; Dmt = Cc1cc(O)cc(C)c1C[C@H](N)C(=O)O; Decanoyl = CCCCCCCCCC(=O)*; Octanoyl = CCCCCCCC(=O)*; Orn = NCCC[C@H](N)C(=O)O; Boc = CC(C)(C)OC(=O)*

What was measured:
GPR39 [1] = biological target: T1, GPR39 (Homo sapiens, UniProt O43194)
T1 sequence (O43194 1-453): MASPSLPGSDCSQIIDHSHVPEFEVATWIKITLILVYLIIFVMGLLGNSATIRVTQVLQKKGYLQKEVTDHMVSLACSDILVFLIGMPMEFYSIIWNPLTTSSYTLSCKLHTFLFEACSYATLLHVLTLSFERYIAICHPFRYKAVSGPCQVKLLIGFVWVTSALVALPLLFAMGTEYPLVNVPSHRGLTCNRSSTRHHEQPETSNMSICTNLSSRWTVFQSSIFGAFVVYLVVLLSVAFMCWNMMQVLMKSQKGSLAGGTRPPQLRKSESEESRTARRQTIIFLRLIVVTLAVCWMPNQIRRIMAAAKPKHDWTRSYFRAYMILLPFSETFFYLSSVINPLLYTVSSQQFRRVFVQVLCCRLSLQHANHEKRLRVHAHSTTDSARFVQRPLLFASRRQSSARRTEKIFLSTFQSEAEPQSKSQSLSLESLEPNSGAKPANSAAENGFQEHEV
Description: (§1) Specifically, the fibroblast cell line CV-1 (1×10^5 cells/ml, Korea Cell Line Bank) was cultured in a 96 well cell culture plate for 24 hours, and then treated with GPR39 inserted into adenovirus and SRE (serum response element) luciferase at 50 MOI (multiplicity of infection) and 25 MOI virus for 3 hours, respectively, and then cultured for 24 hours.

GPR39 [2] = biological target: T1, GPR39; assay: luciferase assay system (SRE luciferase reporter gene) for GPR39 in CV-1 cells; conditions: for ECmax (-fold induction over basal): CV-1 cells
Description: as §1

[3] = EC50, CV-1 cells, GPR39 and SRE luciferase adenovirus, treated 6 hours, luminometer
[4] = GPR39 and SRE luciferase adenovirus, treated 6 hours, luminometer

| SMILES | ECmax (-fold induction over basal) (GPR39 [1]) | EC50 (GPR39 [2]; [3]) [nM] | ECmax (-fold induction over basal) (GPR39 [2]; [4]) | EC50 (GPR39 [2]) [nM] |
| --- | --- | --- | --- | --- |
| CCCCCCCC(=O)NCCCC[C@H](NC(=O)[C@H](Cc1cn(C(c2ccccc2)(c2ccccc2)c2ccccc2)cn1)NC(=O)[C@H](CO)NC(=O)CN)C(=O)N[C@@H](Cc1ccccc1)C(=O)N[C@@H](Cc1ccc(O)cc1)C(=O)O [HKFY-37, N2-(Na-glycyl-L-seryl-Nt-trityl-L-histidyl)-N6-octanoyl-L-lysyl-L-phenylalanyl-L-tyrosine] (H-GS[His(Trt)]K(Octanoyl)FY-OH) | 16 ± 1.7 -fold induction over basal | 1840 ± 200 | – | – |
| CCCCCCCC(=O)NCCCC[C@H](NC(=O)[C@@H](N)Cc1cn(C(c2ccccc2)(c2ccccc2)c2ccccc2)cn1)C(=O)N[C@H](Cc1ccc2ccccc2c1)C(=O)N[C@@H](Cc1ccc(O)cc1)C(=O)O [HKFY-74, ((R)-2-((S)-2-((S)-2-amino-3-(1-trityl-1H-imidazol-4-yl)propanamido)-6-octanamidohexanamido)-3-(naphthalen-2-yl)propanoyl)-L-tyrosine] (H-[His(Trt)]K(Octanoyl)[d2Nal]Y-OH) | 18.8 ± 3.2 -fold induction over basal | 8 ± 1 | – | – |
| CCCCCCCCCC(=O)NCCCC[C@H](NC(=O)[C@@H](N)Cc1cn(C(c2ccccc2)(c2ccccc2)c2ccccc2)cn1)C(=O)N[C@@H](Cc1ccccc1)C(=O)N[C@@H](Cc1ccc(O)cc1)C(=O)O [HKFY-24, N6-decanoyl-N2-(Nt-trityl-L-histidyl)-L-lysyl-L-phenylalanyl-L-tyrosine] (H-[His(Trt)]K(Decanoyl)FY-OH) | 7.03 ± 0.57 -fold induction over basal | 240 ± 70 | – | – |
| CCCCCCCC(=O)NCCCC[C@H](NC(=O)[C@H](Cc1c[nH]c2ccccc12)NC(=O)OC(C)(C)C)C(=O)N[C@H](Cc1ccc(C)cc1)C(=O)N[C@@H](Cc1ccc(O)cc1)C(=O)O [HKFY-78, ((R)-2-((S)-2-((S)-2-((tert-butoxycarbonyl)amino)-3-(1H-indol-3-yl)propanamido)-6-octanamidohexanamido)-3-(p-tolyl)propanoyl)-L-tyrosine] (Boc-WK(Octanoyl)[dPhe(4-Me)]Y-OH) | 11.4 ± 1.54 -fold induction over basal | 9 ± 1 | – | – |
| CCCCCCCC(=O)NCCCC[C@H](NC(=O)[C@@H](N)Cc1cn(C(c2ccccc2)c2ccccc2)cn1)C(=O)N[C@H](Cc1ccc(C)cc1)C(=O)N[C@@H](Cc1ccc(OS(=O)(=O)O)cc1)C(=O)O [HKFY-35, (S)-2-((R)-2-((S)-2-((S)-2-amino-3-(1-benzhydryl-1H-imidazol-4-yl)propanamido)-6-octanamidohexanamido)-3-(p-tolyl)propanamido)-3-(4-(sulfooxy)phenyl)propanoic acid] (H-[His(τ-CHPh2)]K(Octanoyl)[dPhe(4-Me)][sY]-OH) | 18.9 ± 0.41 -fold induction over basal | 280 ± 70 | – | – |
| CCCCCCCC(=O)NCCCC[C@@H](NC(=O)[C@@H](N)Cc1cn(C(c2ccccc2)(c2ccccc2)c2ccccc2)cn1)C(=O)N[C@H](Cc1ccc(Cl)cc1)C(=O)N[C@@H](Cc1ccc(O)cc1)C(=O)O [HKFY-16, ((R)-2-((R)-2-((S)-2-amino-3-(1-trityl-1H-imidazol-4-yl)propanamido)-6-octanamidohexanamido)-3-(4-chlorophenyl)propanoyl)-L-tyrosine] (H-[His(Trt)][dK](Octanoyl)[dPhe(4-Cl)]Y-OH) | 27.9 ± 3.4 -fold induction over basal | 240 ± 20 | – | – |
| CCCCCCCC(=O)NCCCC[C@H](NC(=O)[C@@H](N)Cc1cn(-c2ccc(C(C)(C)C)cc2)cn1)C(=O)N[C@H](Cc1ccc(C)cc1)C(=O)N[C@@H](Cc1ccc(O)cc1)C(=O)O [HKFY-61, ((R)-2-((S)-2-((S)-2-amino-3-(1-(4-(tert-butyl)phenyl)-1H-imidazol-4-yl)propanamido)-6-octanamidohexanamido)-3-(p-tolyl)propanoyl)-L-tyrosine] | 9.88 ± 1.8 -fold induction over basal | 20 ± 3 | – | – |
| CCCCCCCC(=O)NCCCC[C@H](NC(=O)[C@@H](N)Cc1cn(C(c2ccccc2)c2ccccc2)cn1)C(=O)N[C@H](Cc1ccc(C)cc1)C(=O)N[C@@H](Cc1cc([N+](=O)[O-])c(O)c([N+](=O)[O-])c1)C(=O)O [HKFY-69, (S)-2-((R)-2-((S)-2-((S)-2-amino-3-(1-benzhydryl-1H-imidazol-4-yl)propanamido)-6-octanamidohexanamido)-3-(p-tolyl)propanamido)-3-(4-hydroxy-3,5-dinitrophenyl)propanoic acid] (H-[His(τ-CHPh2)]K(Octanoyl)[dPhe(4-Me)][Tyr(3,5-(NO2)2)]-OH) | – | – | 12.2 ± 2.5 -fold induction over basal | – |
| CCCCCCCC(=O)NCCCC[C@H](NC(=O)[C@@H](N)Cc1cn(C(c2ccccc2)(c2ccccc2)c2ccccc2)cn1)C(=O)N[C@@H](Cc1ccccc1)C(=O)N[C@@H](Cc1ccc(O)cc1)C(=O)N[C@@H](CO)C(=O)N[C@@H](CCC(N)=O)C(=O)N[C@@H](CC(=O)O)C(=O)NCC(=O)N[C@@H](C)C(=O)N[C@@H](CCCNC(=N)N)C(=O)N[C@@H](Cc1ccccc1)C(N)=O [HKFY-41, (3S,6S,9S,12S,15S,18S)-3-((2-(((S)-1-(((S)-1-(((S)-1-amino-1-oxo-3-phenylpropan-2-yl)amino)-5-guanidino-1-oxopentan-2-yl)amino)-1-oxopropan-2-yl)amino)-2-oxoethyl)carbamoyl)-18-((S)-2-amino-3-(1-trityl-1H-imidazol-4-yl)propanamido)-6-(3-amino-3-oxopropyl)-15-benzyl-12-(4-hydroxybenzyl)-9-(hydroxymethyl)-5,8,11,14,17,24-hexaoxo-4,7,10,13,16,23-hexaazahentriacontanoic acid] (H-[His(Trt)]K(Octanoyl)FYSQDGARF-NH2) | – | – | 12.2 ± 0.02 -fold induction over basal | – |
| CCCCCCCC(=O)NCCC[C@H](NC(=O)[C@@H](N)Cc1cn(C(c2ccccc2)c2ccccc2)cn1)C(=O)N[C@H](Cc1ccc(C)cc1)C(=O)N[C@@H](Cc1ccc(O)cc1)C(=O)O [HKFY-71, ((R)-2-((S)-2-((S)-2-amino-3-(1-benzhydryl-1H-imidazol-4-yl)propanamido)-5-octanamidopentanamido)-3-(p-tolyl)propanoyl)-L-tyrosine] (H-[His(τ-CHPh2)][Orn](Octanoyl)[dPhe(4-Me)]Y-OH) | 16.4 ± 2.51 -fold induction over basal | 12 ± 3 | – | – |
| CCCCCCCC(=O)NCCCC[C@H](NC(=O)[C@@H](N)Cc1c[n+](CCCC2CCCCC2)cn1CCCC1CCCCC1)C(=O)N[C@@H](Cc1ccccc1)C(=O)N[C@@H](Cc1ccc(O)cc1)C(=O)O | – | – | 17.3 ± 1.22 -fold induction over basal | 33700 ± 1300 |
| CCCCCCCC(=O)NCCCC[C@H](NC(=O)[C@@H](N)Cc1c[n+](CCCc2ccccc2)cn1CCCc1ccccc1)C(=O)N[C@@H](Cc1ccccc1)C(=O)N[C@@H](Cc1ccc(O)cc1)C(=O)O | – | – | 15 ± 2.12 -fold induction over basal | – |
| CCCCCCCC(=O)NCCCC[C@H](NC(=O)[C@@H](N)Cc1cn(C(c2ccccc2)c2ccccc2)cn1)C(=O)N[C@H](Cc1ccc(C)cc1)C(=O)N[C@@H](Cc1c(C)cc(O)cc1C)C(=O)O [HKFY-36, (S)-2-((R)-2-((S)-2-((S)-2-amino-3-(1-benzhydryl-1H-imidazol-4-yl)propanamido)-6-octanamidohexanamido)-3-(p-tolyl)propanamido)-3-(4-hydroxy-2,6-dimethylphenyl)propanoic acid] (H-[His(τ-CHPh2)]K(Octanoyl)[dPhe(4-Me)][Dmt]-OH) | – | – | 9.9 ± 0.28 -fold induction over basal | 150 ± 50 |
